Data as given in ChEMBL document CHEMBL1150207, “Cytotoxicities of some flavonoid analogues” (1991).
Converted amounts (≈) assume the structure as drawn.

Columns and labels:
Type in all cases: functional
[1] = system: A549; assay: Cytotoxicity against human A549 cells after 6 days by MTT assay; conditions: A549, 144 h, read-out: ED50 (the source's name)
[2] = system: MCF7; assay: Cytotoxicity against human MCF7 cells after 6 days by MTT assay; conditions: MCF7, 144 h, read-out: ED50 (the source's name)
[3] = system: HT-29; assay: Cytotoxicity against human HT-29 cells after 6 days by MTT assay; conditions: HT-29, 144 h, read-out: ED50 (the source's name)
[4] = system: SK-MEL; assay: Cytotoxicity against human SK-MEL cells after 6 days by MTT assay; conditions: 144 h, read-out: ED50 (the source's name)
[5] = system: Malme-3M; assay: Cytotoxicity against human MALME-3M cells after 6 days by MTT assay; conditions: 144 h, read-out: ED50 (the source's name)

Row | Structure (SMILES) | EC50 [1] | EC50 [2] | EC50 [3] | EC50 [4] | EC50 [5]
1 | O=c1cc(-c2cccc(O)c2)oc2c(O)c(O)ccc12 | 4.65 µg/mL (≈ 17.2 µM) | 3.71 µg/mL (≈ 13.7 µM) | 4.18 µg/mL (≈ 15.5 µM) | 3.66 µg/mL (≈ 13.5 µM) | 4.8 µg/mL (≈ 17.8 µM)
2 | O=c1cc(-c2cccc(O)c2)oc2cc(O)ccc12 | > 25 µg/mL | > 25 µg/mL | > 25 µg/mL | 5.11 µg/mL (≈ 20.1 µM) | > 25 µg/mL
